Assays:
[1] = target: EGFR (human) (UniProt P00533); conditions: A431
[2] = target: EGFR (human) (UniProt P00533); conditions: a431
[3] = target: EGFR (human) (UniProt P00533); conditions: a431; remark: listed apart in the source
[4] = target: EGFR (human) (UniProt P00533); conditions: a431; remark: listed apart in the source

Chain of EGFR (human) (P00533 whole entry, looked up): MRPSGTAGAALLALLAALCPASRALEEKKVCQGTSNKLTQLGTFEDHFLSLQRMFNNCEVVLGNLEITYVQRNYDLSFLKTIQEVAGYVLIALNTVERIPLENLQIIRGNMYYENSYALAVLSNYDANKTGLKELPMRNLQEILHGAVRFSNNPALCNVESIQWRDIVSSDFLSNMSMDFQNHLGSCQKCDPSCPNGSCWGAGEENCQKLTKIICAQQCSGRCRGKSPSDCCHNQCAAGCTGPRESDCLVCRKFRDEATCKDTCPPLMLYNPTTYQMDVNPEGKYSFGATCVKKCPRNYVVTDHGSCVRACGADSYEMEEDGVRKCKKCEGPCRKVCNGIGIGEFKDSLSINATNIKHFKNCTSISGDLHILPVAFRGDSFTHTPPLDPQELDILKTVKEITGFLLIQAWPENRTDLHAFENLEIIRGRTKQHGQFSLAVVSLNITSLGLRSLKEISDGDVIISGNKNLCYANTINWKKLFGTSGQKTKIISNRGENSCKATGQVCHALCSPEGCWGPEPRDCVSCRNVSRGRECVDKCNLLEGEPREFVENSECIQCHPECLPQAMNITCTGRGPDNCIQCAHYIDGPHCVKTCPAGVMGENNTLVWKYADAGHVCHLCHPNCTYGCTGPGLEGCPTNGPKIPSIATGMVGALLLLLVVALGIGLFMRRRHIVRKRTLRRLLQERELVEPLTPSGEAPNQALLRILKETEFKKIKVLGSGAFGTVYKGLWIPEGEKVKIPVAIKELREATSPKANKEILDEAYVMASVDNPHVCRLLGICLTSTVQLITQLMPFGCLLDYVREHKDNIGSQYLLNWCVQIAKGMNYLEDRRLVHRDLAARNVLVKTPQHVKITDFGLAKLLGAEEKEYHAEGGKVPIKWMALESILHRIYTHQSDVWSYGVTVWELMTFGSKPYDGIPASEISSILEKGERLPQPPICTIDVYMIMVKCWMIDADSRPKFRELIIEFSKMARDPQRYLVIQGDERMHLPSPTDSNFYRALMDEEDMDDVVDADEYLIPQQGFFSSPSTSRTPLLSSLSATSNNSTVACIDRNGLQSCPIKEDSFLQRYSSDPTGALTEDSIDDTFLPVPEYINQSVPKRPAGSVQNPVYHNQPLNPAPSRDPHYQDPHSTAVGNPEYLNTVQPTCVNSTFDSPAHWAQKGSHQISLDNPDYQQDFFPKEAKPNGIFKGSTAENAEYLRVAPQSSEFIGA

Row | inhibition [1] | IC50 [2] [µM] | IC50 [3] [µM] | IC50 [4] [µM] | IC50 [1] [µM] | inhibition [4] | Compound
1 | 0 | 22.8 | 3 |  |  |  | COc1ccc(CCCNc2ncnc3cc(OC)c(OC)cc23)cc1OC
2 | 0 | 6.8 | 6.6 |  |  |  | COc1cc2nc3nccn3c(Nc3cccc(Br)c3)c2cc1OC
3 | 0 | 1.4 | 2.1 |  |  |  | COc1cc2ncnc(N3CCN(c4ccccc4OC)CC3)c2cc1OC
4 |  | > 100 | > 100 |  | 31.6 |  | COc1cc2ncnc(NCCNc3ccccc3)c2cc1OC
5 |  | 24.7 | 85 |  | 0.0047 |  | COc1cc2ncnc(N3CCN(c4ccc(Cl)cc4)CC3)c2cc1OC
6 |  | 21.8 | 34.6 |  | 17.9 |  | COc1cc2ncnc(N3CCN(Cc4ccccc4)CC3)c2cc1OC
7 | 0 | > 100 | > 100 |  |  |  | COc1cc2ncnc(N3CCSCC3)c2cc1OC
8 | 0 | > 100 | > 100 |  |  |  | COc1cc2ncnc(N3CCNCC3)c2cc1OC
9 | 0 | > 100 | > 100 |  |  |  | COc1cc2nc(Nc3cccc(Br)c3)n3nnnc3c2cc1OC
10 |  | 4.4 | > 100 | 0.563 | 0.0437 |  | COc1cc2ncnc(Nc3ccccc3[N+](=O)[O-])c2cc1OC
11 | 0 |  |  |  |  | 0 | COc1cc2ncnc(N(C)c3cccc(Br)c3)c2cc1OC
12 | 0 | 63.5 | 67.4 |  |  |  | COc1cc2ncnc(N3CCN(c4ccccn4)CC3)c2cc1OC
13 | 0 | > 100 | > 100 |  |  |  | COc1cc2ncnc(N3CCN(c4ccccc4C)CC3)c2cc1OC
14 | 0 | 4.7 | 3.9 |  |  |  | COc1cc2ncnc(N3CCN(c4cccc(C(F)(F)F)c4)CC3)c2cc1OC

Continued, compound first:

Row | Compound | inhibition [1] | IC50 [2] [µM] | IC50 [3] [µM] | IC50 [4] [µM] | IC50 [1] [µM] | inhibition [4]
15 | COc1cccc(Nc2ncnc3cc(OC)c(OC)cc23)c1 |  | 11.7 | 77 | 0.706 | 1.6 | 
16 | COc1cc2ncnc(N3CCN(c4ccccc4Cl)CC3)c2cc1OC | 0 | 13.7 | 14.6 |  |  | 
17 | COc1cc2ncnc(N3CCS(=O)(=O)CC3)c2cc1OC | 0 | > 100 | > 100 |  |  | 
18 | COc1cc2ncnc(N3CCN(c4ccc(F)cc4)CC3)c2cc1OC | 0 | > 100 | > 100 |  |  | 
19 | COc1cc2ncnc(N3CCN(c4ccc([N+](=O)[O-])cc4)CC3)c2cc1OC |  | 40.8 | > 100 |  | 0.0168 | 
20 | COc1ccc(Nc2ncnc3cc(OC)c(OC)cc23)cc1OC |  | > 100 | > 100 |  | 9.4 | 
21 | COc1cc2ncnc(N3CCN(c4ccccc4)CC3)c2cc1OC | 0 | 30.8 | 33.6 |  |  | 
22 | COc1cc2nc(Nc3cccc(Br)c3)nc(Nc3cccc(Br)c3)c2cc1OC | 0 | 13.2 | 25.3 |  |  | 
23 | COc1cc2ncnc(N3CCOCC3)c2cc1OC | 0 | > 100 | > 100 |  |  | 
24 | COc1ccc(N2CCN(c3ncnc4cc(OC)c(OC)cc34)CC2)cc1 | 0 | > 100 | > 100 |  |  | 
25 | COc1ccc(CNc2ncnc3cc(OC)c(OC)cc23)cc1OC |  | 27.1 | 30 |  | 31.6 | 
26 | COc1cc2ncnc(N3CCN(c4cccc(Cl)c4)CC3)c2cc1OC | 0 | > 100 | > 100 |  |  | 
27 | COc1cccc(N2CCN(c3ncnc4cc(OC)c(OC)cc34)CC2)c1 | 0 | 38.7 | 58.8 |  |  | 
28 | COc1ccc(CCCCNc2ncnc3cc(OC)c(OC)cc23)cc1OC | 0 | > 100 | > 100 |  |  | 
29 | COc1cc2c(Nc3cccc(Br)c3)nc3nnnn3c2cc1OC | 0 | > 100 | > 100 |  |  | 
30 | COc1cc2ncnc(N3CCN(c4ccccc4F)CC3)c2cc1OC | 0 | > 100 | > 100 |  |  | 
31 | COc1cc2nc(N3CCOCC3)nc(N3CCOCC3)c2cc1OC | 0 | > 100 | > 100 |  |  | 
32 | COc1ccc(CCNc2ncnc3cc(OC)c(OC)cc23)cc1OC | 0 | 26.5 | 30 |  |  | 

From the Kinase Knowledgebase extract (Sharma et al. 2016)
